Source: US11013235B2 (priority 2015, dated 2021)
Read-outs that look alike come from different tables or passages of the source.

Columns and labels:
Format in all cases: in vivo
Phytophthora parasitica = experiment: Control of Phytophthora parasitica disease in tobacco (Pp-Nt); conditions: 1 μM spraying every 24 hours for one week, water control 91
Experimental: (§1) In order to compare the effect of the compounds of formula I to V on the control of diseases in different plants, experiments were conducted in tobacco, tomato and Arabidopsis thaliana plants inoculated with Phytophthora parasitica, Rhizoctonia solani, Alternaria solani, Nocardia sp and Botrytis cinerea, respectively. The compounds were applied by spraying, at a concentration of 1 μM, every 24 hours for one week. The plant mortality rate was determined for the disease produced by Phytophthora parasitica, Rhizoctonia solani and Nocardia sp, while the percentage of leaves with symptoms was determined for the infection by Alternaria solani. In the case of plants affected by Botrytis cinerea, the lesion diameter was measured. […] Each treatment included fifty plants. As control, plants treated with water were studied. The plants of each treatment were previously inoculated with the indicated pathogens, according to different inoculation protocols (Frontiers in Plant Science 3: 268, 1-6, 2012), and later they were treated with the compounds.

Meloidogyne incognita = experiment: Nematode control, nodules per plant: Meloidogyne incognita; conditions: 1 μM foliar application every 5 days, evaluation 35 days after, control 34
Experimental: (§2) The solutions of the compounds were prepared in ethanol and diluted in water, up to a concentration of 1 μM for a foliar application. Applications were conducted every 5 days, spraying only the leafs with each compound. Ten plants were used for each treatment and the final evaluation was performed 35 days after, by quantifying the number of nodules per plant.

Pratylenchus coffeae = experiment: Nematode control, nodules per plant: Pratylenchus coffeae; conditions: 1 μM foliar application every 5 days, evaluation 35 days after, control 42
Experimental: as §2

Nocardia sp = experiment: Control of Nocardia sp disease in tobacco (N-Nt); conditions: 1 μM spraying every 24 hours for one week, water control 58
Experimental: as §1

Alternaria solani = experiment: Control of Alternaria solani disease in tomato (As-SI); conditions: 1 μM spraying every 24 hours for one week, water control 68
Experimental: as §1

[1] = system: Candidatus 'Liberibacter asiaticus'; conditions: spraying every 15 days, 12 months after treatment, Citrus sinensis with HLB
Rhizoctonia solani [2] = experiment: Control of Rhizoctonia solani disease in tomato (Rs-SI); conditions: 1 μM spraying every 24 hours for one week, water control 96
Experimental: as §1

Rhizoctonia solani [3] = experiment: Control of Rhizoctonia solani disease in tobacco (Rs-Nt); conditions: 1 μM spraying every 24 hours for one week, water control 87
Experimental: as §1

Radopholus similis = experiment: Nematode control, nodules per plant: Radopholus similis; conditions: 1 μM foliar application every 5 days, evaluation 35 days after, control 45
Experimental: as §2

Botrytis cinerea [4] = experiment: Control of Botrytis cinerea disease in tomato (Bc-SI); conditions: 1 μM spraying every 24 hours for one week, water control 7.4
Experimental: as §1

Botrytis cinerea [5] = experiment: Control of Botrytis cinerea disease in tobacco (Bc-Nt); conditions: 1 μM spraying every 24 hours for one week, water control 6.7
Experimental: as §1

Botrytis cinerea [6] = experiment: Control of Botrytis cinerea disease in Arabidopsis (Bc-At); conditions: 1 μM spraying every 24 hours for one week, water control 8.7
Experimental: as §1

| Structure (SMILES) | Pp-Nt: percentage of mortality (Phytophthora parasitica) | Mi: number of nodules per plant (Meloidogyne incognita) | Pc: number of nodules per plant (Pratylenchus coffeae) | N-Nt: percentage of mortality (Nocardia sp) | As-SI: percentage of leaves with the disease symptoms (Alternaria solani) | Titers of the bacterium ([1]; 0.001 μM) | Titers of the bacterium ([1]; 0.01 μM) | Titers of the bacterium ([1]; 1 μM) | Titers of the bacterium ([1]; 5 μM) | Titers of the bacterium ([1]; 10 μM) | Rs-SI: percentage of mortality (Rhizoctonia solani [2]) | Rs-Nt: percentage of mortality (Rhizoctonia solani [3]) | Rs: number of nodules per plant (Radopholus similis) | Bc-SI: mean of the diameter of the lesion (Botrytis cinerea [4]) | Bc-Nt: mean of the diameter of the lesion (Botrytis cinerea [5]) | Bc-At: mean of the diameter of the lesion (Botrytis cinerea [6]) |
| --- | --- | --- | --- | --- | --- | --- | --- | --- | --- | --- | --- | --- | --- | --- | --- | --- |
| CC1=COC2c3cc(CC(=O)NCC(O)CO)c(=O)oc3C=CC12 (centres unmarked) [IIA, N-(2,3-dihydroxypropyl)-2-{5-methyl-11-oxo-3,10-dioxatricyclo[7.4.0.0^{2,6}]trideca-1(9),4,7,12-tetraen-12-yl}acetamide] | 1% | 2 | 14 | 1% | 1% | 598 copies per reaction | 14 copies per reaction | 0 copies per reaction | 98 copies per reaction | 9845 copies per reaction | 3% | 2% | 17 | 0.8 mm | 0.9 mm | 0.5 mm |
| Cc1c(CCC(=O)NCC(O)CO)c(=O)oc2cc3occ(C4CCCC4)c3cc12 (centres unmarked) [IK, 3-{6-cyclopentyl-4-methyl-2-oxo-2H-furo[3,2-g]chromen-3-yl}-N-(2,3-dihydroxypropyl)propanamide] | 0% | 0 | 15 | 1% | 8% | 435 copies per reaction | 0 copies per reaction | 0 copies per reaction | 45 copies per reaction | 6521 copies per reaction | 2% | 0% | 0 | 0.8 mm | 1.5 mm | 2.4 mm |
| O=C(c1ccc(OC2CCN(CC(O)CO)CC2)cc1)N1CCC(C2CCCC2)C1 (centres unmarked) [IVG, 3-(4-{4-[(3-cyclopentylpyrrolidin-1-yl)carbonyl]phenoxy}piperidin-1-yl)propane-1,2-diol] | 0% | 0 | 0 | 0% | 7% | 658 copies per reaction | 0 copies per reaction | 0 copies per reaction | 68 copies per reaction | 4562 copies per reaction | 0% | 0% | 0 | 0.8 mm | 1.5 mm | 2.4 mm |
| Cc1c(CCC(=O)NCC(O)CO)c(=O)oc2cc3occ(C4CCCCC4)c3cc12 (centres unmarked) [IJ, 3-{6-cyclohexyl-4-methyl-2-oxo-2H-furo[3,2-g]chromen-3-yl}-N-(2,3-dihydroxypropyl)propanamide] | 1% | 4 | 24 | 2% | 3% | 456 copies per reaction | 0 copies per reaction | 18 copies per reaction | 46 copies per reaction | 5840 copies per reaction | 2% | 4% | 18 | 2.5 mm | 1.5 mm | 1.5 mm |
| O=C(CCc1cc2cc3c(C4CCCC4)coc3cc2oc1=O)NCC(O)CO (centres unmarked) [ID, 3-{6-cyclopentyl-2-oxo-2H-furo[3,2-g]chromen-3-yl}-N-(2,3-dihydroxypropyl)propanamide] | 0% | 0 | 11 | 1% | 8% | 123 copies per reaction | 0 copies per reaction | 0 copies per reaction | 123 copies per reaction | 5489 copies per reaction | 2% | 0% | 0 | 2.5 mm | 1.5 mm | 1.5 mm |
| Cc1nc(N2CCNCC2)ncc1C(=O)N1CC2CC(O)C(O)CC2C1 (centres unmarked) [IIIJ, 2-{[4-methyl-2-(piperazin-1-yl)pyrimidin-5-yl]carbonyl}-octahydro-1H-isoindole-5,6-diol] | 1% | 4 | 2 | 2% | 3% | 578 copies per reaction | 0 copies per reaction | 7 copies per reaction | 578 copies per reaction | 7546 copies per reaction | 2% | 4% | 12 | 1.6 mm | 2.0 mm | 1.1 mm |
| Cc1c(CCC(=O)NCC(O)CO)c(=O)oc2cc3occ(-c4ccccc4)c3cc12 (centres unmarked) [II, N-(2,3-dihydroxypropyl)-3-{4-methyl-2-oxo-6-phenyl-2H-furo[3,2-g]chromen-3-yl}propanamide] | 2% | 3 | 13 | 1% | 2% | 756 copies per reaction | 14 copies per reaction | 14 copies per reaction | 76 copies per reaction | 8420 copies per reaction | 2% | 3% | 2 | 0.8 mm | 0.9 mm | 0.5 mm |
| Cc1coc2cc3oc(=O)c(CCC(=O)NCC(O)CO)c(C)c3cc12 (centres unmarked) [IH, N-(2,3-dihydroxypropyl)-3-{4,6-dimethyl-2-oxo-2H-furo[3,2-g]chromen-3-yl}propanamide] | 1% | 21 | 11 | 1% | 1% | 658 copies per reaction | 8 copies per reaction | 12 copies per reaction | 68 copies per reaction | 4569 copies per reaction | 3% | 2% | 19 | 1.6 mm | 2.0 mm | 1.1 mm |
